According to patent publication US20250296959A1, “B7-H3 TARGETING PEPTIDES AND CONSTRUCTS THEREOF” (Mariana Oncology Inc., priority 2024, published 2025):
Starred links: 1 amine or outer side, 2 acyl side, 3 side chain; linkers in the order of their positions; H or OH if unused. Positions of bridges follow the written chain, without caps; N, C: chain ends. Non-standard residues stand in square brackets, D forms with d. Residues, ends and D or L forms follow the SMILES beside them. ξ: configuration not given here. *: point of attachment. X4 = O=C(O)CN1CCN(CC(=O)O)CCN([C@H](CCC(=O)*)C(=O)O)CCN(CC(=O)O)CC1; Ala(1-CH2CO2H-4-piperidyl) = N[C@@H](CC1CCN(CC(=O)O)CC1)C(=O)O; Ala(piperidin-4-yl) = O=C([C@H](CC1CCN([*:3])CC1)N[*:1])[*:2]; DOTA = O=C(O)CN1CCN(CC(=O)O)CCN(CC(=O)*)CCN(CC(=O)O)CC1; Trp(4-Cl) = N[C@@H](Cc1c[nH]c2cccc(Cl)c12)C(=O)O; Trp(5-F) = N[C@@H](Cc1c[nH]c2ccc(F)cc12)C(=O)O; Trp(7-aza) = N[C@@H](Cc1c[nH]c2ncccc12)C(=O)O; Phe(4-F) = N[C@@H](Cc1ccc(F)cc1)C(=O)O; γGlu = O=C(O)[C@H](CCC(=O)[*:2])N[*:1]; 1Nal = N[C@@H](Cc1cccc2ccccc12)C(=O)O; 2Nal = N[C@@H](Cc1ccc2ccccc2c1)C(=O)O; Ala(4-THP) = N[C@@H](CC1CCOCC1)C(=O)O; AEF = NCCOc1ccc(C[C@H](N)C(=O)O)cc1; Val(3-OH) = CC(C)(O)[C@H](N)C(=O)O; Tle = CC(C)(C)[C@H](N)C(=O)O; hLeu = CC(C)CC[C@H](N)C(=O)O; Nle = CCCC[C@H](N)C(=O)O; ξV = CC(C)C(N)C(=O)O; Sar = CNCC(=O)O

Target: T1, human 4lg B7-H3 (Homo sapiens, UniProt Q5ZPR3)
T1 sequence (Q5ZPR3 29-534): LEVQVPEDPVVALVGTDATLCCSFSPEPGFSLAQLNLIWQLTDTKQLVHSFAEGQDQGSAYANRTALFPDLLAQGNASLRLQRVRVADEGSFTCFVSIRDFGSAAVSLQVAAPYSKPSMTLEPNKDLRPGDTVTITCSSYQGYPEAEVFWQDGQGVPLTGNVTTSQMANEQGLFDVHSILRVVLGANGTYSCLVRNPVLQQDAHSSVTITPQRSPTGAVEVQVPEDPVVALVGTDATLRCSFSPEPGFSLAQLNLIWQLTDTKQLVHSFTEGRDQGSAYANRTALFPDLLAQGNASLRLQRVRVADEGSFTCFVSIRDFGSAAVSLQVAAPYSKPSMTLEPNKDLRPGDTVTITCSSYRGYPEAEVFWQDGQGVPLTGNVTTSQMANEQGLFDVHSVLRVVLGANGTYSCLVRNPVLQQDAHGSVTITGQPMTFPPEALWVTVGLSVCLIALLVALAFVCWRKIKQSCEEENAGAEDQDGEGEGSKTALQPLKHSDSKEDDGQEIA
Test: Affinity determination by surface plasmon resonance (SPR) to 4Ig B7-H3
Conditions: SPR KD—25° C., 4Ig B7-H3; 25° C. flow cell temperature

Which Kd does the source give for `CC(=O)N[C@@H](CCC(C)C)C(=O)N[C@@H](Cc1ccc(O)cc1)C(=O)N[C@H]1CSSC[C@@H](C(=O)N[C@@H](Cc2c[nH]c3ccccc23)C(=O)N[C@@H](Cc2ccccc2)C(=O)N[C@H](C(=O)N[C@H](CCCCNC(=O)CN2CCN(CC(=O)O)CCN(CC(=O)O)CCN(CC(=O)O)CC2)C(N)=O)[C@@H](C)O)NC(=O)[C@H](Cc2ccc(O)cc2)NC(=O)[C@H](C(C)C)NC(=O)[C@H](CC(=O)O)NC(=O)[C@H](Cc2ccc(O)cc2)NC(=O)[C@H](CCCCN)NC(=O)CN(C)C(=O)[C@H](C(C)(C)C)NC1=O` [compound 75, Ac-hLeu-Y-C-Tbg-Sar-K-Y-D-V-Y-C-W-F-Thr-dLys(DOTA)-CONH2] (Ac-[hLeu]YC[Tle][Sar]KYDVYCWFT[dK](DOTA)-NH2; disulfide 3-11) here?
Its Kd is 1 to 10 nM.

For `CC(C)CC[C@H](NC(=O)CC[C@H](NC(=O)CC[C@H](NC(=O)CC[C@H](NC(=O)CN1CCN(CC(=O)O)CCN(CC(=O)O)CCN(CC(=O)O)CC1)C(=O)O)C(=O)O)C(=O)O)C(=O)N[C@@H](Cc1ccc(F)cc1)C(=O)N[C@H]1CSSC[C@@H](C(=O)N[C@@H](Cc2cccc3ccccc23)C(=O)N[C@@H](Cc2ccccc2)C(=O)N2CCC[C@H]2C(N)=O)NC(=O)[C@H](Cc2ccc(O)cc2)NC(=O)[C@H](C(C)C)NC(=O)[C@H](CC(=O)O)NC(=O)[C@H](CC2CCOCC2)NC(=O)[C@H](CC2CCNCC2)NC(=O)CNC(=O)[C@H](C(C)(C)C)NC1=O` [compound 272, DOTA-gE-gE-gE-hLeu-4FPhe-C-Tbg-G-PipAla-ThpA-D-V-Y-C-1Nal-F-Pro-CONH2] ({DOTA-γGlu-γGlu-γGlu}-[hLeu][Phe(4-F)]C[Tle]G[Ala(piperidin-4-yl)][Ala(4-THP)]DVYC[1Nal]FP-NH2; disulfide 3-11), which Kd is on record?
The Kd was 100 to 300 nM.

Which Kd does the source give for `CCCC[C@H](NC(C)=O)C(=O)N[C@@H](Cc1ccc(O)cc1)C(=O)N[C@H]1CSSC[C@@H](C(=O)N[C@@H](Cc2ccc3ccccc3c2)C(=O)N[C@@H](Cc2ccccc2)C(=O)N[C@H](C(=O)N[C@H](CCCCNC(=O)CN2CCN(CC(=O)O)CCN(CC(=O)O)CCN(CC(=O)O)CC2)C(N)=O)[C@@H](C)O)NC(=O)[C@H](Cc2ccc(O)cc2)NC(=O)C(C(C)C)NC(=O)[C@H](CC(=O)O)NC(=O)[C@H](Cc2ccc(O)cc2)NC(=O)[C@H](CCCCN)NC(=O)CNC(=O)[C@H](C(C)C)NC1=O` (stereo partly drawn) [compound 129, Ac-Nle-Y-C-V-G-K-Y-D-V-Y-C-2Nal-F-Thr-dLys(DOTA)-CONH2] (Ac-[Nle]YCVGKYD[ξV]YC[2Nal]FT[dK](DOTA)-NH2; disulfide 3-11) here?
The Kd was 100 to 300 nM.

`CC(C)CC[C@H](NC(=O)CC[C@H](NC(=O)CN1CCN(CC(=O)O)CCN(CC(=O)O)CCN(CC(=O)O)CC1)C(=O)O)C(=O)N[C@@H](Cc1c[nH]c2ncccc12)C(=O)N[C@H]1CSSC[C@@H](C(=O)N[C@@H](Cc2cccc3ccccc23)C(=O)N[C@@H](Cc2ccccc2)C(=O)N2CCC[C@H]2C(N)=O)NC(=O)[C@H](Cc2ccc(O)cc2)NC(=O)[C@H](C(C)C)NC(=O)[C@H](CC(=O)O)NC(=O)[C@H](CC2CCOCC2)NC(=O)[C@H](CC2CCNCC2)NC(=O)CNC(=O)[C@H](C(C)(C)C)NC1=O` [compound 284, DOTA-gE-hLeu-7AzaW-C-Tbg-G-PipAla-ThpA-D-V-Y-C-1Nal-F-Pro-CONH2] ({DOTA-γGlu}-[hLeu][Trp(7-aza)]C[Tle]G[Ala(piperidin-4-yl)][Ala(4-THP)]DVYC[1Nal]FP-NH2; disulfide 3-11) was tested. Which Kd did it give?
The Kd was 10 to 100 nM.

Same assay, conditions: SPR KD—37° C., 4Ig B7-H3; 37° C. flow cell temperature

Which Kd does the source give for `CC(=O)N[C@@H](CCC(C)C)C(=O)N[C@@H](Cc1ccc(O)cc1)C(=O)N[C@H]1CSSC[C@@H](C(=O)N[C@@H](Cc2c[nH]c3ccc(F)cc23)C(=O)N[C@@H](Cc2ccccc2)C(=O)N[C@H](C(=O)N[C@H](CCC(=O)O)C(N)=O)C(C)(C)O)NC(=O)[C@H](Cc2ccc(O)cc2)NC(=O)[C@H](C(C)C)NC(=O)[C@H](CC(=O)O)NC(=O)[C@H](CC2CCOCC2)NC(=O)[C@H](CC2CCN(C(=O)CC[C@H](C(=O)O)N3CCN(CC(=O)O)CCN(CC(=O)O)CCN(CC(=O)O)CC3)CC2)NC(=O)CNC(=O)[C@H](C(C)(C)C)NC1=O` [compound 476, Ac-hLeu-Y-C-Tbg-G-Pip(R-DOTAGA)Ala-ThpA-D-V-Y-C-5FW-F-hydroxyVal-dGlu-CONH2] (Ac-[hLeu]YC[Tle]G[Ala(piperidin-4-yl)](X4)[Ala(4-THP)]DVYC[Trp(5-F)]F[Val(3-OH)][dE]-NH2; disulfide 3-11) here?
Its Kd is < 1 nM.

How did the Kd turn out when `CC(=O)N[C@@H](CCC(C)C)C(=O)N[C@@H](Cc1ccc(O)cc1)C(=O)N[C@H]1CSSC[C@@H](C(=O)N[C@@H](Cc2c[nH]c3ccccc23)C(=O)N[C@@H](Cc2ccccc2)C(=O)N[C@H](C(=O)N[C@H](C)C(N)=O)[C@@H](C)O)NC(=O)[C@H](Cc2ccc(O)cc2)NC(=O)[C@H](C(C)C)NC(=O)[C@H](CC(=O)O)NC(=O)[C@H](Cc2ccc(OCCNC(=O)CN3CCN(CC(=O)O)CCN(CC(=O)O)CCN(CC(=O)O)CC3)cc2)NC(=O)[C@H](CCCCN)NC(=O)CNC(=O)[C@H](C(C)C)NC1=O` [compound 136, Ac-hLeu-Y-C-V-G-K-AEF(DOTA)-D-V-Y-C-W-F-Thr-dAla-CONH2] (Ac-[hLeu]YCVGK[AEF](DOTA)DVYCWFT[dA]-NH2; disulfide 3-11) was run?
Its Kd is < 1 nM.

With `CC(=O)N[C@@H](CCC(C)C)C(=O)N[C@@H](Cc1ccc(O)cc1)C(=O)N[C@H]1CSSC[C@@H](C(=O)N[C@@H](Cc2c[nH]c3cccc(Cl)c23)C(=O)N[C@@H](Cc2ccccc2)C(=O)N[C@H](C(=O)N[C@H](CCCCNC(=O)CN2CCN(CC(=O)O)CCN(CC(=O)O)CCN(CC(=O)O)CC2)C(=O)O)C(C)(C)O)NC(=O)[C@H](Cc2ccc(O)cc2)NC(=O)[C@H](C(C)C)NC(=O)[C@H](CC(=O)O)NC(=O)[C@H](CC2CCOCC2)NC(=O)[C@H](CC2CCNCC2)NC(=O)CNC(=O)[C@H](C(C)(C)C)NC1=O` [compound 472, Ac-hLeu-Y-C-Tbg-G-PipAla-ThpA-D-V-Y-C-4ClW-F-hydroxyVal-dLys(DOTA)-COOH] (Ac-[hLeu]YC[Tle]G[Ala(piperidin-4-yl)][Ala(4-THP)]DVYC[Trp(4-Cl)]F[Val(3-OH)][dK](DOTA)-OH; disulfide 3-11) as the compound, how does the Kd read?
The Kd was 1 to 10 nM.

Which Kd does the source give for `CC(=O)N[C@@H](CCC(C)C)C(=O)N[C@@H](Cc1ccc(O)cc1)C(=O)N[C@H]1CSSC[C@@H](C(=O)N[C@@H](Cc2c[nH]c3ccc(F)cc23)C(=O)N[C@@H](Cc2ccccc2)C(=O)N[C@H](C(=O)N[C@H](CO)C(N)=O)C(C)(C)O)NC(=O)[C@H](Cc2ccc(O)cc2)NC(=O)[C@H](C(C)C)NC(=O)[C@H](CC(=O)O)NC(=O)[C@H](CC2CCN(CC(=O)O)CC2)NC(=O)[C@H](CCCCNC(=O)CN2CCN(CC(=O)O)CCN(CC(=O)O)CCN(CC(=O)O)CC2)NC(=O)CNC(=O)[C@H](C(C)(C)C)NC1=O` [compound 420, Ac-hLeu-Y-C-Tbg-G-Lys(DOTA)-Pip(CH2COOH)Ala-D-V-Y-C-5FW-F-hydroxyVal-dSer-CONH2] (Ac-[hLeu]YC[Tle]GK(DOTA)[Ala(1-CH2CO2H-4-piperidyl)]DVYC[Trp(5-F)]F[Val(3-OH)][dS]-NH2; disulfide 3-11) here?
The Kd was 1 to 10 nM.

`CC(=O)N[C@@H](CCC(C)C)C(=O)N[C@@H](Cc1ccc(O)cc1)C(=O)N[C@H]1CSSC[C@@H](C(=O)N[C@@H](Cc2c[nH]c3ccc(F)cc23)C(=O)N[C@@H](Cc2ccccc2)C(=O)N[C@H](C(=O)N[C@H](CCC(=O)O)C(N)=O)C(C)(C)O)CC(=O)[C@H](Cc2ccc(O)cc2)NC(=O)[C@H](C(C)C)NC(=O)[C@H](CC(=O)O)NC(=O)[C@H](C[C@H]2CC[C@H](O)CC2)NC(=O)[C@H](CCCCNC(=O)CN2CCN(CC(=O)O)CCN(CC(=O)O)CCN(CC(=O)O)CC2)NC(=O)CNC(=O)[C@H](C(C)(C)C)NC1=O` [compound 425, Ac-hLeu-Y-C-Tbg-G-Lys(DOTA)-4OHCha(pk2)-D-V-Y-C-5FW-F-hydroxyVal-dGlu-CONH2] was tested. Which Kd did it give?
Its Kd is 1 to 10 nM.
